Measurements as given in ChEMBL document CHEMBL1137219, “Carbonic anhydrase inhibitors: the first on-resin screening of a 4-sulfamoylphenylthiourea library” (J Med Chem, 2004).

Experiments:
Carbonic anhydrase 2 = Carbonic anhydrase 2 (Homo sapiens, UniProt P00918)
Description: Inhibitory activity against human Carbonic anhydrase II

Carbonic anhydrase 1 = Carbonic anhydrase 1 (Homo sapiens, UniProt P00915)
Chain of Carbonic anhydrase 1 (P00915 whole entry): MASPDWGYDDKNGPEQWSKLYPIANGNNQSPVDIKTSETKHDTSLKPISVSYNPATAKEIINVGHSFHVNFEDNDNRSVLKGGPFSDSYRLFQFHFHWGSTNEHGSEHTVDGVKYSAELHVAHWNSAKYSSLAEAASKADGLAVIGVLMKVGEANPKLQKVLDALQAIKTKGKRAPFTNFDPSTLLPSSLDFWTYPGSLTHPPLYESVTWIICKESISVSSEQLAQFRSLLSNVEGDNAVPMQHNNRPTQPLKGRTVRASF
Description: Inhibitory activity against human Carbonic anhydrase I

| Ki (Carbonic anhydrase 2) [µM] | Ki (Carbonic anhydrase 1) [µM] | Structure (SMILES) |
| --- | --- | --- |
| 0.005 | 0.025 | CC[C@H](C)[C@H](/N=C(\S)Nc1ccc(S(N)(=O)=O)cc1)C(=O)OCC(=O)NC |
| 0.011 | 0.053 | CNC(=O)COC(=O)[C@H](CCC(N)=O)/N=C(\S)Nc1ccc(S(N)(=O)=O)cc1 |
| 0.005 | 0.021 | CC(C)C[C@H](NC(=S)Nc1ccc(S(N)(=O)=O)cc1)C(=O)O |
| 0.02 | 0.064 | CNC(=O)COC(=O)[C@H](Cc1c[nH]c2ccccc12)NC(=S)Nc1ccc(S(N)(=O)=O)cc1 |
| 0.009 | 0.04 | NC(=O)CC[C@H](NC(=S)Nc1ccc(S(N)(=O)=O)cc1)C(=O)O |
| 0.012 | 0.054 | C[C@H](NC(=S)Nc1ccc(S(N)(=O)=O)cc1)C(=O)O |
| 0.005 | 0.031 | CNC(=O)COC(=O)[C@@H](/N=C(\S)Nc1ccc(S(N)(=O)=O)cc1)C(C)C |
| 0.004 | 0.027 | CSCC[C@H](/N=C(\S)Nc1ccc(S(N)(=O)=O)cc1)C(=O)O |
| 0.025 | 0.11 | NS(=O)(=O)c1ccc(NC(=S)N2CCC[C@H]2C(=O)O)cc1 |
| 0.005 | 0.031 | CNC(=O)COC(=O)[C@H](CCSC)NC(=S)Nc1ccc(S(N)(=O)=O)cc1 |
| 0.006 | 0.027 | NC(=O)C[C@H](/N=C(\S)Nc1ccc(S(N)(=O)=O)cc1)C(=O)O |
| 0.004 | 0.022 | CC[C@H](C)[C@H](NC(=S)Nc1ccc(S(N)(=O)=O)cc1)C(=O)O |
| 0.005 | 0.023 | CC(C)[C@H](NC(=S)Nc1ccc(S(N)(=O)=O)cc1)C(=O)O |
| 0.008 | 0.042 | CNC(=O)COC(=O)[C@H](Cc1ccccc1)NC(=S)Nc1ccc(S(N)(=O)=O)cc1 |
| 0.006 | 0.03 | NS(=O)(=O)c1ccc(N/C(S)=N/[C@@H](Cc2ccccc2)C(=O)O)cc1 |
| 0.004 | 0.029 | CNC(=O)COC(=O)[C@H](CC(N)=O)/N=C(\S)Nc1ccc(S(N)(=O)=O)cc1 |
| 0.007 | 0.023 | CNC(=O)COC(=O)[C@H](CC(C)C)/N=C(\S)Nc1ccc(S(N)(=O)=O)cc1 |

| Structure (SMILES) | Ki (Carbonic anhydrase 2) [µM] | Ki (Carbonic anhydrase 1) [µM] |
| --- | --- | --- |
| NS(=O)(=O)c1ccc(NC(=S)N[C@@H](Cc2c[nH]c3ccccc23)C(=O)O)cc1 | 0.011 | 0.047 |
| CNC(=O)COc1ccc(COC(=O)[C@H](C)NC(=S)Nc2ccc(S(N)(=O)=O)cc2)cc1 | 0.016 | 0.058 |
| CNC(=O)COC(=O)[C@@H]1CCCN1/C(S)=N\c1ccc(S(N)(=O)=O)cc1 | 0.046 | 0.197 |
